Biological target: T1, Recombinant human renin (Homo sapiens, UniProt P00797)
T1 sequence (P00797 67-406): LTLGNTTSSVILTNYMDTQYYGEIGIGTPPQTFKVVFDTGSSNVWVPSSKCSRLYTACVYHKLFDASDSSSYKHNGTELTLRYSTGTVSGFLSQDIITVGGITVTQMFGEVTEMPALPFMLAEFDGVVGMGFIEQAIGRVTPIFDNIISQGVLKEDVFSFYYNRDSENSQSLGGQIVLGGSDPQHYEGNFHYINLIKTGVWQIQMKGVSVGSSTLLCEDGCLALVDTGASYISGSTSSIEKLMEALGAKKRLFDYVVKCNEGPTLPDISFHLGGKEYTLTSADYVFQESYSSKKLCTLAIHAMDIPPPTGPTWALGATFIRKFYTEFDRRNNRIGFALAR
Assay: Inhibitory activity against human renin (fluorogenic peptide substrate)
Format: biochemical
Conditions: 50% inhibitory concentration (IC50) against human renin, 37° C. for 1 hour

SMILES	IC50
COC(=O)NC/C=C/c1cc([C@@H](C)N(C(=O)[C@H]2CN[C@@H](C)CO2)C2CC2)nn1-c1ccccc1 [Example 358]	5.7 nM
COC(=O)NCCCc1cc([C@@H](C)N(C(=O)[C@H]2CNC[C@@H](C)O2)C2CC2)nn1-c1cccc(F)c1 [Example 359]	0.3 nM
COC(=O)NCCCc1nc(C(C)N(C(=O)[C@H]2CNCCO2)C2CC2)nn1-c1cccc(Cl)c1 (stereo partly shown) [Example 360]	7.6 nM
COCCCOc1cc([C@@H](C)N(C(=O)[C@H]2CNCCO2)C2CC2)nn1-c1ccccc1 [Example 361]	0.8 nM
COC(=O)NCCCc1cc([C@@H](C)N(C(=O)[C@H]2CNCCO2)C2CC2)cc(N(C)S(C)(=O)=O)n1 [Example 362]	5 nM
COC(=O)NCCCc1nc([C@@H](C)N(C(=O)[C@H]2CNCCO2)C2CC2)nn1-c1cccc(Cl)c1 [Example 365]	3.5 nM
COCCOc1cc([C@@H](C)N(C(=O)[C@H]2CNC[C@@H](C)O2)C2CC2)cc(CCCNC(=O)OC)n1 [Example 366]	0.7 nM
COC(=O)NCCCc1cc([C@@H](C)N(C(=O)[C@H]2CNC[C@@H](C(F)(F)F)O2)C2CC2)nn1-c1ccccc1 [Example 367]	1.7 nM
COC(=O)NCCCc1sc([C@@H](C)N(C(=O)[C@H]2CN[C@@H](C)CO2)C2CC2)nc1-c1cccc(Cl)c1 [Example 368]	8.4 nM
COC(=O)NCCCc1cc([C@@H](C)N(C(=O)[C@H]2CNC[C@@H](CF)O2)C2CC2)nn1-c1ccccc1 [Example 369]	1.5 nM
COC(=O)NCCCc1cc([C@@H](C)N(C(=O)[C@H]2CN[C@@H](C)CO2)C2CC2)nn1-c1cccc(F)c1 [Example 370]	1.7 nM
COC(=O)NCCCc1cc([C@@H](C)N(C(=O)[C@H]2CN[C@@H](C)CO2)C2CC2)nn1-c1ccc(F)cc1 [Example 371]	1 nM
COC(=O)NCCCc1cc([C@@H](C)N(C(=O)[C@H]2CN[C@@H](CF)CO2)C2CC2)nn1-c1ccc(F)cc1 [Example 372]	6 nM
COCCCc1cc([C@@H](C)N(C(=O)[C@H]2CNC[C@@H](C)O2)C2CC2)cc(CCCNC(=O)OC)n1 [Example 373]	0.8 nM
COC(=O)NCCCc1cc([C@@H](C)N(C(=O)[C@H]2CNCCO2)C2CC2)nc(C2CC2)n1 [Example 374]	5.4 nM
COC(=O)NCCCc1nc(OC)cc([C@@H](C)N(C(=O)[C@H]2CNC[C@@H](C)O2)C2CC2)n1 [Example 375]	1.3 nM
COC(=O)NCCCc1nc([C@@H](C)N(C(=O)[C@H]2CNC[C@@H](C)O2)C2CC2)sc1-c1cccc(Cl)c1 [Example 376]	4.7 nM
COC(=O)NCCCc1nc([C@@H](C)N(C(=O)[C@H]2CNCCO2)C2CC2)sc1-c1cccc(Cl)c1 [Example 377]	2.4 nM
COC[C@@H]1CNC[C@H](C(=O)N(C2CC2)[C@H](C)c2nc(CCCNC(=O)OC)c(-c3cccc(Cl)c3)s2)O1 [Example 378]	3.5 nM
CCc1cc([C@@H](C)N(C(=O)[C@H]2CNCCO2)C2CC2)nc2c1cnn2CCCOC [Example 379]	8.9 nM
CCc1cc([C@@H](C)N(C(=O)[C@H]2CNC[C@@H](C)O2)C2CC2)nc2c1cnn2CCCOC [Example 380]	2.6 nM
COC[C@@H]1CNC[C@H](C(=O)N(C2CC2)[C@H](C)c2nc(CCCNC(=O)OC)n(-c3cccc(Cl)c3)n2)O1 [Example 381]	1.7 nM
COCCCc1cc([C@@H](C)N(C(=O)[C@H]2CNC[C@@H](COC)O2)C2CC2)cc(CCCNC(=O)OC)n1 [Example 382]	3.6 nM

SMILES	IC50
COCCOc1cc([C@@H](C)N(C(=O)[C@H]2CNC[C@@H](COC)O2)C2CC2)cc(CCCNC(=O)OC)n1 [Example 383]	1.3 nM
COCCOc1cc([C@H](C)N(C(=O)[C@H]2CNC[C@@H](COC)O2)C2CC2)cc(CCCNC(=O)OC)n1 [Example 384]	3.2 nM
COCCCn1ncc2c(C)cc([C@@H](C)N(C(=O)[C@H]3CNC[C@@H](COC)O3)C3CC3)nc21 [Example 385]	4.3 nM
COC[C@@H]1CNC[C@H](C(=O)N(C2CC2)[C@H](C)c2cc(OC)nc(CCCNC(=O)OC)n2)O1 [Example 386]	3.2 nM
COC(=O)NCCCn1nc([C@@H](C)N(C(=O)[C@H]2CNCCO2)C2CC2)cc1C(C)(C)c1ccccc1 [Example 387]	4.4 nM
CCc1nc([C@@H](C)N(C(=O)[C@H]2CNCCO2)C2CC2)cc2c1ncn2CCCOC [Example 388]	1.8 nM
CCc1nc([C@@H](C)N(C(=O)[C@H]2CN[C@@H](C)CO2)C2CC2)cc2c1ncn2CCCOC [Example 389]	6.1 nM
COC(=O)NCCCn1nc([C@@H](C)N(C(=O)[C@H]2CNC[C@@H](C)O2)C2CC2)cc1C(C)(C)c1ccccc1 [Example 390]	3.5 nM
CCOc1ncc([C@@H](C)N(C(=O)[C@H]2CNCCO2)C2CC2)nc1CCCNC(=O)OC [Example 391]	2 nM
CCc1nc([C@@H](C)N(C(=O)[C@H]2CNC[C@@H](C)O2)C2CC2)cc2c1ncn2CCCOC [Example 392]	0.7 nM
CCc1nc([C@@H](C)N(C(=O)[C@H]2CN[C@@H](COC)CO2)C2CC2)cc2c1ncn2CCCOC [Example 393]	3.7 nM
CCc1nc([C@@H](C)N(C(=O)[C@H]2CNC[C@@H](COC)O2)C2CC2)cc2c1ncn2CCCOC [Example 394]	0.6 nM
CCOc1ncc(C(C)N(C(=O)[C@H]2CNC[C@@H](C)O2)C2CC2)nc1CCCNC(=O)OC (stereo partly shown) [Example 395]	3.5 nM
COC(=O)NCCCc1cc(C(C)N(C(=O)[C@H]2CNCCO2)C2CC2)sc1C1CC1 (stereo partly shown) [Example 396]	4.8 nM
CCc1nc([C@H](C)N(C(=O)[C@H]2CN[C@@H](C)CO2)C2CC2)cc2c1ccn2CCCOC [Example 397]	1.3 nM
CCOc1ncc(C(C)N(C(=O)[C@H]2CNC[C@@H](COC)O2)C2CC2)nc1CCCNC(=O)OC (stereo partly shown) [Example 398]	5.1 nM
CCc1cc(CCCNC(=O)OC)nc([C@@H](C)N(C(=O)[C@H]2CNCCO2)C2CC2)n1 [Example 399]	4 nM
COC(=O)NCCCc1nc([C@@H](C)N(C(=O)[C@H]2CNCCO2)C2CC2)sc1-c1cccc(F)c1 [Example 400]	2.3 nM
C=C(c1sc([C@@H](C)N(C(=O)[C@H]2CNCCO2)C2CC2)cc1CCCNC(=O)OC)C(F)(F)F [Example 401]	2.7 nM
COC(=O)NCCCc1nc([C@H](C)N(C(=O)[C@H]2CNCCO2)C2CC2)sc1-c1ccc(F)cc1 [Example 402]	2.3 nM
COC(=O)NCCCc1nc(C(C)N(C(=O)[C@H]2CNCCO2)C2CC2)sc1-c1cccnc1 (stereo partly shown) [Example 403]	3.1 nM
COC(=O)NCCCn1cc([C@@H](C)N(C(=O)[C@H]2CNC[C@@H](CF)O2)C2CC2)nc1C1CCOCC1 [Example 404]	0.7 nM
COC(=O)NCCCc1cc(C(C)N(C(=O)[C@H]2CNCCO2)C2CC2)sc1C(C)C(F)(F)F (stereo partly shown) [Example 405]	3.9 nM

SMILES	IC50
COC(=O)NCCCc1sc(C(C)N(C(=O)[C@H]2CNCCO2)C2CC2)cc1-c1ccccc1F (stereo partly shown) [Example 406]	3.4 nM
COC(=O)NCCCc1nc([C@@H](C)N(C(=O)[C@H]2CNCCO2)C2CC2)sc1-c1ccnc(C)c1 [Example 407]	1.7 nM
COC(=O)NCCCc1nc([C@@H](C)N(C(=O)[C@H]2CNCCO2)C2CC2)sc1-c1ccc(C)nc1 [Example 408]	1.1 nM
COC(=O)NCCCc1cc([C@@H](C)N(C(=O)[C@H]2CNCCO2)C2CC2)sc1-c1cnc(N)nc1 [Example 409]	1 nM
COC(=O)NCCCc1cc(C(C)N(C(=O)[C@H]2CNCCO2)C2CC2)sc1-c1cnc2[nH]ccc2c1 (stereo partly shown) [Example 410]	6.7 nM
C=C(C)c1sc(C(C)N(C(=O)[C@H]2CNCCO2)C2CC2)cc1CCCNC(=O)OC (stereo partly shown) [Example 411]	2.2 nM
COC(=O)NCCCc1cc([C@@H](C)N(C(=O)[C@H]2CNCCO2)C2CC2)sc1-c1cnc(N)nc1 [Example 412]	0.6 nM
COC(=O)NCCCc1nc([C@@H](C)N(C(=O)[C@H]2CNCCO2)C2CC2)sc1-c1cnn(C)c1 [Example 413]	2 nM
COC(=O)NCCCc1nc([C@@H](C)N(C(=O)[C@H]2CNCCO2)C2CC2)sc1-c1ccccc1C(=O)OC [Example 414]	2.8 nM
COC(=O)NCCCc1nc([C@@H](C)N(C(=O)[C@H]2CNCCO2)C2CC2)sc1-c1ccnn1C [Example 415]	0.6 nM
COC(=O)NCCCc1nc([C@@H](C)N(C(=O)[C@H]2CNCCO2)C2CC2)sc1-c1cncnc1 [Example 416]	3 nM
COC(=O)NCCCc1nc([C@@H](C)N(C(=O)[C@H]2CNCCO2)C2CC2)sc1-c1ccccc1F [Example 417]	3.4 nM
COC(=O)NCCCc1cc(C(C)N(C(=O)[C@H]2CNCCO2)C2CC2)sc1C(C)C (stereo partly shown) [Example 418]	3.9 nM
COC(=O)NCCCc1cc(C(C)N(C(=O)[C@H]2CNCCO2)C2CC2)sc1C1CCOCC1 (stereo partly shown) [Example 419]	1.4 nM
COC(=O)NCCCc1cc(C(C)N(C(=O)[C@H]2CNCCO2)C2CC2)sc1C(C)CO (stereo partly shown) [Example 420]	2.7 nM
COC(=O)NCCCc1nc([C@@H](C)N(C(=O)[C@H]2CNCCO2)C2CC2)sc1-c1cn[nH]c1 [Example 421]	2.2 nM
COC(=O)NCCCc1cc(C(C)N(C(=O)[C@H]2CNCCO2)C2CC2)sc1-c1cccnc1N (stereo partly shown) [Example 422]	1.7 nM
COC(=O)NCCCc1cc([C@@H](C)N(C(=O)[C@H]2CNCCO2)C2CC2)sc1C#CC(C)(C)O [Example 423]	1 nM
COC(=O)NCCCc1nc([C@@H](C)N(C(=O)[C@H]2CNCCO2)C2CC2)cnc1O[C@H]1CCOC1 [Example 424]	5 nM
COC(=O)NCCCc1cc(C(C)N(C(=O)[C@H]2CNCCO2)C2CC2)sc1-c1ccc(N)nc1 (stereo partly shown) [Example 425]	8.8 nM
COC(=O)NCCCc1cc([C@H](C)N(C(=O)[C@H]2CNCCO2)C2CC2)sc1-c1ccnn1C [Example 427]	3.5 nM
